Source: ChEMBL document CHEMBL3739333, “Nature of the charged head group dictates the anticancer potential of lithocholic acid-tamoxifen conjugates for breast cancer therapy” (Medchemcomm, 2015)
Each block holds one compound with its values, some of them ahead of it. Active and inactive are the calls of the source. The calls are words filed in the database; no cut-off is given here.

How the values were obtained:
MDA-MB-231 [1] = assay: Drug uptake in human ER negative MDA-MB-231 cells; assay type: ADME, cell-based
MCF7 [2] = assay: Drug uptake in human MCF7 cells expressing ER; assay type: ADME, cell-based
[3] = Binding affinity to model membranes using Laurdan-based hydration assessed as changes in generalized polarization after 6 hrs
T47D [4] = assay: Cytotoxicity against human T47D cells expressing ER after 48 hrs by MTT assay; assay type: functional, cell-based
Lipid bilayer [5] = assay: Binding affinity to DPPC membranes assessed as lowering of phase transition temperature
MDA-MB-231 [6] = assay: Cytotoxicity against human ER negative MDA-MB-231 cells after 48 hrs by MTT assay; assay type: functional, cell-based; conditions: MDA-MB-231, 48 h
MDA-MB-468 [7] = assay: Cytotoxicity against human ER negative MDA-MB-468 cells after 48 hrs by MTT assay; assay type: functional, cell-based; conditions: MDA-MB-468, 48 h
MCF7 [8] = assay: Cell cycle arrest in human MCF7 cells expressing ER assessed as accumulation of sub-G0 phase after 48 hrs by FACS analysis; assay type: functional, cell-based
MCF7 [9] = assay: Cytotoxicity against human MCF7 cells expressing ER after 48 hrs by MTT assay; assay type: functional, cell-based; conditions: MCF7, 48 h
MCF7 [10] = assay: Induction of apoptosis in human MCF7 cells expressing ER assessed as change in mitochondrial membrane potential at 10 to 20 uM after 48 hrs using DiOC6 dye based FACS analysis; assay type: functional, cell-based
MDA-MB-231 [11] = assay: Cell cycle arrest in human ER negative MDA-MB-231 cells assessed as accumulation of sub-G0 phase after 48 hrs by FACS analysis; assay type: functional, cell-based
Lipid bilayer [12] = assay: Binding affinity to DPPC membranes assessed as changes in membrane fluidity of liposomes by measuring fluorescence anisotropy; conditions: Liposome; TDE = time-dependent effect
[13] = Retention time of the compound by HPLC analysis; assay type: physicochemical
MDA-MB-231 [14] = assay: Ratio of tamoxifen IC50 to compound IC50 for human ER negative MDA-MB-231 cells after 48 hrs by MTT assay; assay type: functional
T47D [15] = assay: Ratio of tamoxifen IC50 to compound IC50 for human ER positive T47D cells after 48 hrs by MTT assay; assay type: functional
MDA-MB-231 [16] = assay: Cell cycle arrest in human ER negative MDA-MB-231 cells assessed as accumulation of sub-G0 phase at 20 uM after 48 hrs by FACS analysis relative to control; assay type: functional
MDA-MB-231 [17] = assay: Induction of apoptosis in human ER negative MDA-MB-231 cells assessed as effect on caspase 9 level at 10 uM after 48 hrs by Western blot analysis; assay type: functional, cell-based
MDA-MB-231 [18] = assay: Induction of apoptosis in human ER negative MDA-MB-231 cells assessed as increase of Bax protein expression at 10 uM after 48 hrs by Western blot analysis; assay type: functional, cell-based
MDA-MB-231 [19] = assay: Induction of apoptosis in human ER negative MDA-MB-231 cells assessed as increase of cleaved caspase 7 level at 10 uM after 48 hrs by Western blot analysis; assay type: functional, cell-based
MDA-MB-231 [20] = assay: Induction of apoptosis in human ER negative MDA-MB-231 cells assessed as increase of ROS level at 20 uM after 60 mins using DCFDA relative to control; assay type: functional
MCF7 [21] = assay: Cell cycle arrest in human MCF7 cells expressing ER assessed as accumulation of sub-G0 phase at 20 uM after 48 hrs by FACS analysis relative to control; assay type: functional
MCF7 [22] = assay: Induction of apoptosis in human MCF7 cells expressing ER assessed as effect on caspase 9 level at 10 uM after 48 hrs by Western blot analysis; assay type: functional, cell-based
MCF7 [23] = assay: Induction of apoptosis in human MCF7 cells expressing ER assessed as effect of Bax protein expression at 10 uM after 48 hrs by Western blot analysis; assay type: functional, cell-based
MCF7 [24] = assay: Decrease in caspase-6 level in human MCF7 cells expressing ER at 10 uM after 48 hrs by Western blot analysis; assay type: functional, cell-based
MDA-MB-231 [25] = assay: Induction of apoptosis in human ER negative MDA-MB-231 cells assessed as change in mitochondrial membrane potential at 10 to 20 uM after 48 hrs using DiOC6 dye based FACS analysis; assay type: functional, cell-based
MDA-MB-231 [26] = assay: Induction of apoptosis in human ER negative MDA-MB-231 cells assessed as decrease of Bcl-2 protein expression at 10 uM after 48 hrs by Western blot analysis; assay type: functional, cell-based
MCF7 [27] = assay: Induction of apoptosis in human MCF7 cells expressing ER assessed as increase of ROS level at 20 uM after 60 mins using DCFDA relative to control; assay type: functional, cell-based
MDA-MB-231 [28] = assay: Induction of apoptosis in human ER negative MDA-MB-231 cells assessed as increase of cleaved caspase 8 level at 10 uM after 48 hrs by Western blot analysis; assay type: functional, cell-based
MCF7 [29] = assay: Decrease in caspase-7 level in human MCF7 cells expressing ER at 10 uM after 48 hrs by Western blot analysis; assay type: functional, cell-based
MDA-MB-231 [30] = assay: Induction of apoptosis in human ER negative MDA-MB-231 cells assessed as effect of Bcl-xL protein expression at 10 uM after 48 hrs by Western blot analysis; assay type: functional, cell-based
MCF7 [31] = assay: Induction of apoptosis in human MCF7 cells expressing ER assessed as decrease of Bcl-xL protein expression at 10 uM after 48 hrs by Western blot analysis; assay type: functional, cell-based
MDA-MB-468 [32] = assay: Ratio of tamoxifen IC50 to compound IC50 for human ER negative MDA-MB-468 cells after 48 hrs by MTT assay; assay type: functional
MCF7 [33] = assay: Induction of apoptosis in human MCF7 cells expressing ER assessed as decrease of Bcl-2 protein expression at 10 uM after 48 hrs by Western blot analysis; assay type: functional, cell-based
MCF7 [34] = assay: Decrease in active-caspase-8 level in human MCF7 cells expressing ER at 10 uM after 48 hrs by Western blot analysis; assay type: functional, cell-based
MDA-MB-231 [35] = assay: Induction of apoptosis in human ER negative MDA-MB-231 cells assessed as increase of cleaved caspase 6 level at 10 uM after 48 hrs by Western blot analysis; assay type: functional, cell-based
MCF7 [36] = assay: Decrease in pro-caspase-8 level in human MCF7 cells expressing ER at 10 uM after 48 hrs by Western blot analysis; assay type: functional, cell-based

Compound: C[C@H](CCC(=O)NCc1cn(CCNc2ccc([N+](=O)[O-])c3nonc23)nn1)[C@H]1CC[C@H]2[C@@H]3CC[C@@H]4C[C@H](OC(=O)C[n+]5ccc(N(C)C)cc5)CC[C@]4(C)[C@H]3CC[C@]12C.[Cl-]
Drug uptake (MDA-MB-231 [1]): Active | Drug uptake (MCF7 [2]): Active

Compound: CC/C(=C(\c1ccccc1)c1ccc(OCCN(C)c2ccc([N+](=O)[O-])c3nonc23)cc1)c1ccccc1
Drug uptake (MDA-MB-231 [1]): Active | Drug uptake (MCF7 [2]): Active

Compound: CC/C(=C(\c1ccccc1)c1ccc(OCCN(C)C(=O)CC[C@@H](C)[C@H]2CC[C@H]3[C@@H]4CC[C@@H]5C[C@H](OC(=O)C[N+]6(C)CCCC6)CC[C@]5(C)[C@H]4CC[C@]23C)cc1)c1ccccc1.[Cl-]
IC50 (T47D [4]): 8.4 µM | IC50 (MDA-MB-231 [6]): 12.6 µM | IC50 (MDA-MB-468 [7]): 6.61 µM | IC50 (MCF7 [9]): 24 µM | Retention_time [13]: 6.79 min

Compound: CC/C(=C(\c1ccccc1)c1ccc(OCCN(C)C(=O)CC[C@@H](C)[C@H]2CC[C@H]3[C@@H]4CC[C@@H]5C[C@H](OC(=O)C[n+]6ccc(N(C)C)cc6)CC[C@]5(C)[C@H]4CC[C@]23C)cc1)c1ccccc1.[Cl-]
Activity [3]: Active | Ratio IC50 (MDA-MB-231 [14]): 4 | Ratio IC50 (T47D [15]): 4 | fold change (FC) (MDA-MB-231 [16]): 5 | IC50 (T47D [4]): 7 µM | Activity (Lipid bilayer [5]): Active | Activity (MDA-MB-231 [17]): inactive | Activity (MDA-MB-231 [18]): Active | IC50 (MDA-MB-231 [6]): 6.5 µM | IC50 (MDA-MB-468 [7]): 3.13 µM | Activity (MCF7 [8]): Dose-dependent effect | IC50 (MCF7 [9]): 12.7 µM | Activity (MDA-MB-231 [19]): Active | fold change (FC) (MDA-MB-231 [20]): 2.3 | fold change (FC) (MCF7 [21]): 6 | Activity (MCF7 [22]): inactive | Activity (MCF7 [23]): inactive | inhibition (MCF7 [24]): Active | Activity (MDA-MB-231 [25]): Active | Activity (MDA-MB-231 [26]): Active | Activity (MCF7 [10]): inactive | Activity (MDA-MB-231 [11]): Dose-dependent effect | Activity (MCF7 [27]): inactive | Activity (MDA-MB-231 [28]): Active | inhibition (MCF7 [29]): Active | Activity (MDA-MB-231 [30]): inactive | Activity (MCF7 [31]): Active | Ratio IC50 (MDA-MB-468 [32]): 4 | Retention_time [13]: 6.837 min | Activity (MCF7 [33]): Active | inhibition (MCF7 [34]): Active | Activity (MDA-MB-231 [35]): Active | inhibition (MCF7 [36]): Active | Activity (Lipid bilayer [12]): tde

Compound: CC/C(=C(\c1ccccc1)c1ccc(OCCN(C)C(=O)CC[C@@H](C)[C@H]2CC[C@H]3[C@@H]4CC[C@@H]5C[C@H](OC(=O)CN)CC[C@]5(C)[C@H]4CC[C@]23C)cc1)c1ccccc1
Activity [3]: Active | IC50 (T47D [4]): > 50 µM | IC50 (MDA-MB-231 [6]): > 50 µM | IC50 (MDA-MB-468 [7]): > 50 µM | IC50 (MCF7 [9]): > 50 µM | Activity (Lipid bilayer [12]): tde

The next lines start with results.

Activity [3]: inactive | Activity (Lipid bilayer [5]): Active | Activity (Lipid bilayer [12]): tde
Compound: C[C@H](CCC(=O)O)[C@H]1CC[C@H]2[C@@H]3CC[C@@H]4C[C@H](OC(=O)C[n+]5ccc(N(C)C)cc5)CC[C@]4(C)[C@H]3CC[C@]12C
IC50 (T47D [4]): 13.3 µM | IC50 (MDA-MB-231 [6]): 13.7 µM | IC50 (MDA-MB-468 [7]): 9.1 µM | Activity (MCF7 [8]): Dose-dependent effect | IC50 (MCF7 [9]): 43.4 µM | Activity (MCF7 [10]): inactive | Activity (MDA-MB-231 [11]): Dose-dependent effect

Retention_time [13]: 6.741 min
Compound: CC/C(=C(\c1ccccc1)c1ccc(OCCN(C)C(=O)CC[C@@H](C)[C@H]2CC[C@H]3[C@@H]4CC[C@@H]5C[C@H](OC(=O)C[N+]6(C)CCOCC6)CC[C@]5(C)[C@H]4CC[C@]23C)cc1)c1ccccc1.[Cl-]
IC50 (T47D [4]): 45.2 µM | IC50 (MDA-MB-231 [6]): 48.2 µM | IC50 (MDA-MB-468 [7]): 15.3 µM | IC50 (MCF7 [9]): 43.6 µM

Retention_time [13]: 6.676 min
Compound: CC/C(=C(\c1ccccc1)c1ccc(OCCN(C)C(=O)CC[C@@H](C)[C@H]2CC[C@H]3[C@@H]4CC[C@@H]5C[C@H](OC(=O)C[N+](C)(C)C)CC[C@]5(C)[C@H]4CC[C@]23C)cc1)c1ccccc1.[Cl-]
IC50 (T47D [4]): 8.1 µM | IC50 (MDA-MB-231 [6]): 18.1 µM | IC50 (MDA-MB-468 [7]): 15 µM | IC50 (MCF7 [9]): 28.9 µM

Activity [3]: inactive | Activity (Lipid bilayer [5]): inactive | Activity (Lipid bilayer [12]): tde
Compound: CC/C(=C(\c1ccccc1)c1ccc(OCCN(C)C)cc1)c1ccccc1 [TAMOXIFEN]
fold change (FC) (MDA-MB-231 [16]): 3 | IC50 (T47D [4]): 29.9 µM | IC50 (MDA-MB-231 [6]): 27 µM | IC50 (MDA-MB-468 [7]): 15 µM | Activity (MCF7 [8]): Dose-dependent effect | fold change (FC) (MDA-MB-231 [20]): 1.8 | fold change (FC) (MCF7 [21]): 2 | Activity (MDA-MB-231 [25]): inactive | Activity (MCF7 [10]): inactive | Activity (MDA-MB-231 [11]): Dose-dependent effect

Retention_time [13]: 7.033 min
Compound: CC/C(=C(\c1ccccc1)c1ccc(OCCN(C)C(=O)CC[C@@H](C)[C@H]2CC[C@H]3[C@@H]4CC[C@@H]5C[C@H](OC(=O)C[n+]6ccccc6)CC[C@]5(C)[C@H]4CC[C@]23C)cc1)c1ccccc1.[Cl-]
IC50 (T47D [4]): 17.4 µM | IC50 (MDA-MB-231 [6]): 18 µM | IC50 (MDA-MB-468 [7]): 13.6 µM | IC50 (MCF7 [9]): > 50 µM

Retention_time [13]: 6.735 min
Compound: CC/C(=C(\c1ccccc1)c1ccc(OCCN(C)C(=O)CC[C@@H](C)[C@H]2CC[C@H]3[C@@H]4CC[C@@H]5C[C@H](OC(=O)C[N+]67CCN(CC6)CC7)CC[C@]5(C)[C@H]4CC[C@]23C)cc1)c1ccccc1.[Cl-]
IC50 (T47D [4]): 17.9 µM | IC50 (MDA-MB-231 [6]): 20 µM | IC50 (MDA-MB-468 [7]): 20.9 µM | IC50 (MCF7 [9]): > 50 µM

Retention_time [13]: 6.767 min
Compound: CC/C(=C(\c1ccccc1)c1ccc(OCCN(C)C(=O)CC[C@@H](C)[C@H]2CC[C@H]3[C@@H]4CC[C@@H]5C[C@H](OC(=O)C[N+]6(C)CCCCC6)CC[C@]5(C)[C@H]4CC[C@]23C)cc1)c1ccccc1.[Cl-]
IC50 (T47D [4]): 9.8 µM | IC50 (MDA-MB-231 [6]): 9.2 µM | IC50 (MDA-MB-468 [7]): 7.6 µM | IC50 (MCF7 [9]): 24.5 µM
